Assay results taken from patent US20110159507A1, “METHOD FOR DETECTING THE DRUG EFFECTS OF DNA METHYLATION-INHIBITORS” (SCHOOL JURIDICAL PERSON THE KITASATO INSTITUTE, priority 2008, published 2011).

Tests used:
[1] = tested on: K562 PU.1 KD cells (PU 2-10 and PU 3-10); experiment: cell viability assay (WST-8), percentages of dead cells after drug administration, PU.1 gene-knockdown cells vs control cells; type: cell-based; conditions: for drug sensitivity of PU.1 gene-knockdown cells to the DNA methylation inhibitor: K562 PU.1 KD cells
From the text: FIGS. 1(a) and 1(b) illustrate and show the results of establishment experiments of PU.1-knockdown lines (K562 PU.1 KD cells). That is, a PU.1 siRNA expression vector (Takara, Ohtsu, Japan) and its control vector (Takara) were introduced into K562 cells as leukemia cell lines in accordance with the method described in the document (Takahashi Set al., British Journal of Haematology, 2005 (130), p 428-436). Specifically, in the method, electroporation was employed to introduce the expression vector and its control vector into leukemia cell lines (K562 cells). The introduced cells were cultured in an RPMI medium in the presence of 1 μg/mL puromycin to select cells that constitutively express PU.1 siRNAs and isolate the cells by a limiting dilution method. The isolated control cells (Control K562) (V5 and V6) and PU.1-knockdown cells (2-10 and 3-10) (K562 PU.1 KD cells) were used to prepare proteins based on a conventional method. The proteins were subjected to SDS-PAGE electrophoresis, then transferred to a membrane, and blotted with a PU.1 antibody and β-actin useful for the estimation of protein amounts (FIG. 1(a)).
Two kinds of PU.1 gene-knockdown cells (PU 2-10 and PU 3-10) and control cells (vec 5 and vec 6) were compared for their sensitivities to 5-azadc (AZA) (% effect: percentages of dead cells after drug administration). In other words, the respective cells were seeded in a 96-well plate at a density of 2,000 cells/well, and 5-azadc (AZA) was added into the well at concentrations of 0.2, 1, 3.9, 15.6, 62.5, 250, and 1,000 nM. Then, cell viability assays were performed after 96 hours. In the assays, 10 μL of a WST-8 reagent (Dojindo, Japan) were added to a well in which 100 μL of a cell culture medium had been loaded, culture was performed in a 5% CO2 incubator at 37° C. for 2 hours, and the absorbance is then measured using a microplate reader at a wavelength of 490 nm, to thereby measure cell viability. FIG. 7 illustrates the results in terms of percentages of dead cells (% effect).

[2] = tested on: K562 PU.1 OE cells (A2 and H8); experiment: cell viability assay (WST-8), percentages of dead cells after drug administration, PU.1 gene-overexpressing cells vs control cells; type: cell-based
From the text: FIGS. 3(a) and 3(b) illustrate and show the results of establishment experiments of PU.1-overexpressing cell lines (K562 PU.1 OE cells). That is, the PU.1 expression vector described in the literature was used (Inomata et al., Leukemia Research 30 (2006) p 659-664). The expression vector and its control vector pcDNA3.1 (Invitrogen, CA) were introduced into K562 cells as leukemia cell lines in accordance with the method described in literature (Takahashi S et al., British Journal of Haematology, 2005 (130), p 428-436). The introduced cells were cultured in an RPMI medium in the presence of 400 μg/mL Neomycin to select cells that constitutively express PU.1 and isolate the cells by a limiting dilution method. […]
Two kinds of PU.1 gene-knockdown cells (PU 2-10 and PU 3-10) and control cells (vec 5 and vec 6) were compared for their sensitivities to 5-azadc (AZA) (% effect: percentages of dead cells after drug administration). […] In the assays, 10 μL of a WST-8 reagent (Dojindo, Japan) were added to a well in which 100 μL of a cell culture medium had been loaded, culture was performed in a 5% CO2 incubator at 37° C. for 2 hours, and the absorbance is then measured using a microplate reader at a wavelength of 490 nm, to thereby measure cell viability. […]

Row | Structure (SMILES) | drug sensitivity of PU.1 gene-knockdown cells to the DNA methylation inhibitor [1] | drug sensitivity of PU.1 gene-knockdown cells to the DNA methylation inhibitor ([1]; listed as 5-aza-2′-deoxycytidine) | percentages of dead cells (% effect): lower than in control cells (vec 5 and vec 6) by ([1]; PU 2-10 and PU 3-10, 0.2-1,000 nM, 96 hours, FIG. 7) | percentages of dead cells (% effect): higher than in control cells (vec 1 and vec 2) by ([2]; A2 and H8, same experiment as FIG. 7 (0.2-1,000 nM, 96 hours), FIG. 8) | drug sensitivity of PU.1 gene-overexpressing cells to the DNA methylation inhibitor ([2]; K562 PU.1 OE cells)
1 | Nc1ncn([C@@H]2O[C@H](CO)[C@@H](O)[C@H]2O)c(=O)n1 [5-azacytidine] | resistant | – | – | – | –
2 | Nc1ncn([C@H]2C[C@H](O)[C@@H](CO)O2)c(=O)n1 [5-azadc, 5-aza-2′-deoxycytidine] | resistant and poorly sensitive | resistant | about 20% | about 20% | highly sensitive
